System: MCF-7 cells
Assay: Clonogenic assay, MCF-7 cells
Assay type: cell-based, human
Details: 24 h drug, calphostin C light-activated 2 h, read-out: IC50 (concentration required to kill or inhibit the growth of 50% of cells)
Experimental: The breast cancer cell line MCF-7 (lot HTB-22) was obtained from the American […] (ATCC) and maintained in Dulbecco's H21 medium (MEM) supplemented with 10% Fetal Bovine Serum (FBS) (HyClone, Logan, Utah) in a humidified atmosphere containing 5% CO2 at 37° C. To establish drug resistant cell lines, MCF-7 cells were grown in the presence of either paclitaxel or doxorubicin, beginning at a concentration 1000-fold below that required to kill 50% of the cells (the IC50). The drug concentration was increased 3-fold every two weeks (two passages), with an aliquot of the cells removed for storage in liquid nitrogen before each increase in concentration. Dose escalation continued until all cells died, after which the cells able to tolerate the highest concentration of drug were thawed for subsequent study. In this way, paclitaxel-resistant (MCF-7TAX) and doxorubicin-resistant (MCF-7DOX) cell lines were established. The IC50 for each drug was determined using a clonogenic assay as outlined below. The drug resistant cells were kept in culture in the presence of the maximally tolerated drug dose. Before each experiment, the cell lines were grown for two days in the absence of drug after which fresh medium containing either calphostin C (Sigma Laboratories, Oakville, ON), doxorubicin (Adriamycin PFS®, USP, Mississauga, ON) or paclitaxel (Taxol, Bristol-Myers Squibb, Montreal, QC) was added at the concentrations indicated.
The sensitivity of MCF-7, MCF-7TAX and MCF-7DOX cells to calphostin C, paclitaxel or doxorubicin was determined using a clonogenic assay. Briefly, 2.5×10^5 cells were seeded into 25 cm^2 tissue culture flasks in Dulbecco's H21 medium supplemented with 10% FBS. The cells were allowed to grow overnight, after which the medium was removed and replaced with medium containing varying concentrations of paclitaxel, doxorubicin, or calphostin C (after 2 hours of light exposure to activate the molecule). […] The colonies present in 5 randomly selected fields were then counted by visual inspection. […]

## COc1c(C[C@@H](C)OC(=O)Oc2ccc(O)cc2)c2c3c(C[C@@H](C)OC(=O)c4ccccc4)c(OC)c(=O)c4c(O)cc(OC)c(c5c(OC)cc(O)c(c1=O)c52)c43 [calphostin C]
  IC50: 0.0132 µM

Reference: patent US7371780B2, “Use of calphostin C to treat drug-resistant tumor cells” (priority 2003, dated 2008)
